The subject of one data set is S1PR4-EGFP. The data set can be described thus: S1PR4 internalization and recycling in cell lines overexpressing S1PR4-EGFP (fluorescence microscopy). Conditions: S1P 100 nM, FTY720 100 nM, SLB736 1 μM, cycloheximide; for S1PR4 internalization: 30 minutes after treatment; for S1PR4 recycling to the cell membrane: 2 hours (washed after 30 minutes). In kind it is cell-based. On the procedure: Cell lines overexpressing S1PR4-EGFP were used to identify whether or not SLB736 and FTY720 actually internalize S1PR4 into cells and thereby act as functional antagonists.
Specifically, the cell lines overexpressing S1PR4-EGFP were incubated in a cover glass allowing for microscopic observation and were then treated with a vehicle (dimethyl sulfoxide […]), S1P (100 nM; agonist, positive control group), FTY720 (100 nM) and SLB736 (1 μM). 30 minutes and 2 hours after treatment with each material, the cell lines were fixed with a fixing solution and observed with a fluorescence microscope. At this time, the cells were cultured after treatment with a protein synthesis inhibitor (cycloheximide) in order to inhibit the synthesis of new receptors, were first observed with a fluorescence microscope 30 minutes after each material treatment, and were then washed. Then, the cells were further cultured for 1 hour 30 minutes and were secondarily observed, and cell images were obtained.

For data set [1] the following is noted: reported for FTY720; cited from earlier work.
For data set [2] the following is noted: 10 times a normal dose; cited from earlier work.
The subject of another data set is NLRP3 inflammasome. The data set can be described thus: IL-1β production of LPS-treated macrophages (NLRP3 inflammasome activity). Conditions: Raw cells; for inhibitory effect of IL-1β production: then LPS. It counts as cell-based, mouse. From the text: It is well known that the treatment of macrophages with lipopolysaccharide (LPS) results in activation of inflammation-regulating complex (inflammasome), thereby increasing IL-1β production (Mariathasan et al., Nat. Rev. Immunol. 2007; 17186029). In order to determine the inhibitory effect of the activity of inflammation-regulating complex (NLRP3 inflammasome), which is a representative inflammation-regulating protein, the IL-1(3 production of candidate substances upon the treatment of macrophages with LPS was measured and evaluated.
The macrophages were treated with myriocin in different concentrations as a control group and were then treated with the same concentration of LPS for 24 hours. […] Based on this, experiments were conducted to determine the effect of sphingolipid candidates on the inhibition of IL-1β.

For data set [3], the system named is non-alcoholic steatohepatitis (NASH) caused by MCDD. The data set is described as follows: prevention of NASH onset in mice administered MCDD for 6 weeks. It counts as in vivo, mouse. An excerpt:
In order to identify the effect of the SLB736 compound on the prevention of onset of non-alcoholic steatohepatitis (NASH), an animal model administered with MCDD for 6 weeks was used. Generally known characteristic microscopic findings of NASH include steatosis, ballooning degeneration of hepatocytes, lobular inflammation, perisinusoidal fibrosis and the like. In 2005, the NASH clinical research network (CRN) designed a detailed grading system for lesions corresponding to nonalcoholic steatohepatitis and thus proposed the nonalcoholic fatty liver disease activity score (NAS), which is widely used in various research due to the excellent reproducibility thereof. Accordingly, the present inventors have scored the grade of steatosis, location of steatosis, lobular inflammation and the extent of fibrosis, from the results of liver tissue observation of animal models, based on the CRN classification system. Based on this, the effect of SLB736, which is the target compound in the present invention, on the prevention or progression of non-alcoholic steatohepatitis caused by MCDD was evaluated. […] In order to determine this quantitatively, evaluation was conducted according to the NAS system of the CRN. […] In addition, the expression levels of TGF-β, TNF-α and MCP-1 were measured in order to identify the effects of the SLB736 compound on the expression of inflammatory markers and fibrosis markers in liver tissue. Specifically, RNA was extracted from liver tissue of the animal model and mRNA was measured using Q-PCR.

The target of data set [4] is T1, S1PR4 (Homo sapiens, UniProt O95977).
T1 construct: purchased DiscoveRX Corp
T1 sequence (O95977 1-384): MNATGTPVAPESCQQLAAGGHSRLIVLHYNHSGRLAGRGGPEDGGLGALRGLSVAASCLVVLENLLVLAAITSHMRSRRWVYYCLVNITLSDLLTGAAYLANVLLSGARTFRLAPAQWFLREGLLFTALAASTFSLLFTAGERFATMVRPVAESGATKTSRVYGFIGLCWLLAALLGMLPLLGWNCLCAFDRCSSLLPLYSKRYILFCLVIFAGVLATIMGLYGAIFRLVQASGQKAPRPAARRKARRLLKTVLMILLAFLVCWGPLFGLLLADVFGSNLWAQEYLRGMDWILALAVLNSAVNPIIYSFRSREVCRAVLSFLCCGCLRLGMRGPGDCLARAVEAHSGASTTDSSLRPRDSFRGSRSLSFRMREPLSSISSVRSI
The data set can be described thus: agonistic activity of S1P receptors, GPCR activity measurement method of DiscoveRX Corp. In kind it is cell-based.

A short description of data set [5]: leukocytes and lymphocytes in whole blood after administration (lymphopenia). In kind it is in vivo, mouse. The conditions noted are these: mice, automated analyzer. On the procedure: Therefore, when the SLB736 of the present invention was administered, changes of leukocytes and lymphocytes in the blood were measured to determine the possibility of side effects. On the day of autopsy, blood was collected from the posterior vein using a syringe and whole blood was refrigerated in an EDTA-2K CBC bottle. The leukocytes and lymphocytes in the whole blood were measured using an automated analyzer.

Data set [6] deals with T2, S1PR4 (Mus musculus, UniProt Q9Z0L1).
T2 construct: endogenous in cells; host or cells: Raw cells (mouse macrophage line)
T2 sequence (Q9Z0L1 1-386): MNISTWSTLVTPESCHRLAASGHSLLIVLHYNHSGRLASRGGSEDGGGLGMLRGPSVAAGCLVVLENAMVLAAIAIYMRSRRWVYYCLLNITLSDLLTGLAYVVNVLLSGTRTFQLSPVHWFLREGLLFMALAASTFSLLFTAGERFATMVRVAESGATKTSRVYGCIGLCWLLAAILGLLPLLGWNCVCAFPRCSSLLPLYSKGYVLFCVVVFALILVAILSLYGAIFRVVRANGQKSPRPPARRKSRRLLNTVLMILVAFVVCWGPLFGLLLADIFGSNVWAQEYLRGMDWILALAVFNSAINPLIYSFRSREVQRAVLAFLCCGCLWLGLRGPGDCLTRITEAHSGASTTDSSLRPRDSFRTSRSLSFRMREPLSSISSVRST
The data set is described as follows: S1PR4 expression in LPS-treated Raw cells. In kind it is cell-based. The conditions noted are these: substance then LPS, vs LPS only. On the procedure: In addition, Raw cells, which are mouse macrophage lines, were treated with a FTY720 or SLB736 substance, and were then treated with LPS, and S1PR4 expression was then measured.

The subject of data set [7] is non-alcoholic steatohepatitis (NASH) caused by MCDD. The data set is described as follows: treatment of NASH in NASH-induced mice (MCDD for 4 weeks, then 4 weeks treatment). In kind it is in vivo, mouse. Conditions: 5 mg/kg/day for 4 weeks after 4 weeks MCDD, liver tissue. On the procedure: A NASH-induced animal model obtained by administering MCDD to 8-week-old mice (C57BL6/N, Orient Bio Inc., Korea) for 4 weeks was used in order to identify the effect of the SLB736 compound on the treatment of non-alcoholic steatohepatitis (NASH). Specifically, the NASH-induced model mice were divided into two groups, the control group was further fed with MCDD for 4 weeks, the experimental group was fed with SLB736 at a dose of 5 mg/kg/day for 4 weeks in combination with MCDD, and liver tissue was collected from each mouse and observed with a microscope to determine the degree of steatosis, lobular inflammation and fibrosis.

For data set [8], the target named is T2, S1PR4. The data set can be described thus: S1PR4 protein expression in liver tissue of MCDD-fed mice (Western blotting). In kind it is in vivo. The conditions noted are these: C57BL/6N mice, 1 mg/kg with MCDD for 6 weeks, vs MCDD alone. An excerpt: In order to determine whether or not SLB736, the compound of the present invention, acts as a functional antagonist of S1PR4, changes in S1PR4 protein expression were observed after administration of candidate substances to nonalcoholic steatohepatitis (NASH) model mice and macrophages thereof.
It is well known that the administration of a methionine choline-deficient diet (MCDD) to mice results in non-alcoholic steatohepatitis. The mice (C57BL/6N, Orient Bio, Inc., Korea) used in the experiments were divided into three groups, and MCDD alone, 1 mg/kg of MCDD and FTY720, and 1 mg/kg of MCDD and SLB736 were administered to each group for 6 weeks. Then, changes in the expression of S1PR4 protein in liver tissue of mice were measured through Western blotting.

[9] abbreviates: 1 mg/kg/day for six weeks with MCDD, liver tissue.
[10] abbreviates: 1 mg/kg/day for six weeks with MCDD, vs control group.
The mark [11] stands for this setting: liver tissue, MCDD 6 weeks model.

For `CCCCCCCCCCCCC/C=C/[C@@H](O)[C@@H](N)COP(=O)(O)O` [S1P, sphingosine 1-phosphate, reference compound], in the data set with S1PR4-EGFP, the S1PR4 internalization entry is reported as “internalized” and the “S1PR4 recycling to the cell membrane” value is recorded as “recycled to the cell membrane”.
On to `CCCCCCCCc1ccc(CCC(N)(CO)CO)cc1` [FTY720, Fingolimod], for which the “side effect in the blood” value in [1] is reported as “lymphopenia in the blood”.
Consider `CCCCCCC(=O)CCCCCC/C=C/C[C@@H](O)[C@H](O)[C@@](N)(CO)C(=O)O` [myriocin, reference compound], for which, in data set [2], the toxicity in animals entry is “death from severe digestive disorders”. For the same compound, in the data set with NLRP3 inflammasome (10 μM, then LPS 100 ng/ml for 24 hours), the IL-1β production result is “effectively reduced IL-1β production”.
With `CCCCCCCCCCn1cc(CCC(N)(CO)CO)nn1` [SLB736, 2-amino-2-(2-(1-decyl-1H-1,2,3-triazol-4-yl)ethyl)propane-1,3-diol], in data set [3] (setting [9]), the “degree of fibrosis (microscope)” value is “significantly reduced”, the “degree of steatosis (microscope)” value is on record as “significantly reduced” and the “lobular inflammation (microscope)” value is on record as “significantly reduced”. Further, in [3] (setting [10]), the “degree of fibrosis, NAS system of the CRN” value was “significantly alleviated”; the “degree of steatosis, NAS system of the CRN” value is on record as “significantly alleviated”; the “lobular inflammation, NAS system of the CRN” value is given as “significantly alleviated”. In data set [3] (setting [11]), the “expression of MCP-1 (mRNA, Q-PCR)” value was “reduced to a significant level”; the “expression of TGF-β (mRNA, Q-PCR)” value is “reduced to a significant level”; the “expression of TNF-α (mRNA, Q-PCR)” value is on record as “reduced to a significant level”. In addition, in the data set with S1PR4-EGFP, the S1PR4 internalization result is “internalized” and the “S1PR4 recycling to the cell membrane” value is recorded as “not recycled”. Besides, the “agonistic activity of S1P receptors” value on S1PR4 [4] is reported as “agonistic effect specific for S1PR4”. In data set [5], the leukocytes in blood result was “no reduction” and the lymphocytes in blood result is reported as “no reduction”. On S1PR4 [6], the “expression level of S1PR4” value is “significantly reduce”. Also, in data set [7], the “degree of fibrosis (microscope)” value is on record as “considerable reduction”, the “degree of steatosis (microscope)” value is reported as “considerable reduction” and the “lobular inflammation (microscope)” value is reported as “considerable reduction”. For the same compound, the “inhibitory effect of IL-1β production” value in the data set with NLRP3 inflammasome (0.1 μM) is on record as “excellent”. Besides, the “inhibitory effect of IL-1β production” value in the data set on NLRP3 inflammasome (1.0 μM) is given as “excellent”. Further, the “amount of S1PR4 protein in liver tissue” value on S1PR4 [8] was “decreased”.

The values above are taken from patent US11571435B2, “S1PR4-targeting composition for preventing or treating non-alcoholic steatohepatitis” (UNIVERSITY OF ULSAN FOUNDATION FOR INDUSTRY COOPERATION, priority 2017, dated 2023).
